Here are results for eight compounds from PubChem BioAssay (NCI).

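Values below derive from 48-hour exposures of cells grown in 96-well plates, with endpoints linearly interpolated between the two concentrations bracketing the appropriate inhibition level. The concentration for 50% growth inhibition is given as GI50. TGI: total growth inhibition.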

Test systems include HCT-15 colon; SK-MEL-5 melanoma; DU-145 prostate; UACC-257 melanoma; KM12 colon; SW-620 colon; OVCAR-4 ovarian; COLO 205 colon; LOX IMVI melanoma; CAKI-1 renal.
Holding throughout (assay): growth of human tumour cells (NCI), 48 h

Regarding `COc1ccc(C(=O)c2cc(C)c(OC)c(C)c2)cc1OC(=O)CCl`, the GI50 was < 0.01 µM in the experiment on HCT-15 colon; < 0.01 µM in the experiment on SK-MEL-5 melanoma; < 0.01 µM in the experiment with DU-145 prostate; 19 µM with UACC-257 melanoma; < 0.01 µM with KM12 colon; < 0.01 µM with SW-620 colon. The GI50 was 0.866 µM in the experiment on OVCAR-4 ovarian, 0.751 µM in the experiment with COLO 205 colon and < 0.01 µM in the experiment with LOX IMVI melanoma. Further, the TGI with HCT-15 colon is > 100 µM; with SK-MEL-5 melanoma it was 0.459 µM; in the experiment with DU-145 prostate, > 100 µM; in the experiment on UACC-257 melanoma, > 100 µM; in the experiment on KM12 colon, > 65.3 µM; in the experiment with SW-620 colon, > 100 µM. In addition, the results for the TGI in the experiment on OVCAR-4 ovarian, in the experiment on COLO 205 colon and with LOX IMVI melanoma were > 100 µM, 18.8 µM and > 100 µM, respectively.
On to `COc1ccc(-c2cc(-c3cc(C)cc(Br)c3O)no2)cc1`, for which the TGI in the experiment on HCT-15 colon is > 100 µM; with SK-MEL-5 melanoma, 24.3 µM; with DU-145 prostate, 36.2 µM; with UACC-257 melanoma, > 100 µM; in the experiment on CAKI-1 renal it was 24 µM; with KM12 colon, > 100 µM. Besides, the TGI in the experiment with SW-620 colon was > 100 µM; in the experiment on OVCAR-4 ovarian it was 13.2 µM; in the experiment on LOX IMVI melanoma, > 100 µM.
As for `COc1ccc(C(=O)c2cc(OC)c(OC)c(OC)c2)cc1/C=C/C(=O)c1ccc(F)cc1`, the GI50 with HCT-15 colon was 2.14 µM; in the experiment with SK-MEL-5 melanoma it was 4.31 µM; in the experiment with DU-145 prostate it was 7.72 µM; in the experiment on UACC-257 melanoma it was 12.3 µM; in the experiment on CAKI-1 renal it was 2.78 µM; in the experiment with KM12 colon, 2.79 µM. In addition, the GI50 in the experiment with SW-620 colon was 2.53 µM; in the experiment on OVCAR-4 ovarian, 4.55 µM; in the experiment on COLO 205 colon, 5.18 µM. Further, the TGI was 6.96 µM in the experiment with HCT-15 colon; 15.5 µM in the experiment with SK-MEL-5 melanoma; 21 µM with DU-145 prostate; 49.7 µM in the experiment with UACC-257 melanoma; 14.6 µM with CAKI-1 renal; 8.07 µM in the experiment on KM12 colon. Also, the values for the TGI in the experiment on SW-620 colon, in the experiment with OVCAR-4 ovarian and in the experiment on COLO 205 colon were 7.44 µM, 33.6 µM and 28.1 µM, respectively.
`CCOC(=O)C1CCN(S(=O)(=O)/N=C2/NC(=O)NC2=C(Cl)Cl)CC1`: the GI50 in the experiment on HCT-15 colon is 1.82 µM; in the experiment with SK-MEL-5 melanoma, 1.98 µM; in the experiment on DU-145 prostate, 2.37 µM; in the experiment on UACC-257 melanoma, 2.38 µM; in the experiment on KM12 colon it was 0.254 µM; in the experiment on SW-620 colon it was 2.09 µM. The GI50 with COLO 205 colon is 2.08 µM. For the same compound, the TGI in the experiment on HCT-15 colon amounted to 3.56 µM; in the experiment with SK-MEL-5 melanoma, 4.26 µM; in the experiment on DU-145 prostate, 15.1 µM; with UACC-257 melanoma it was 7.24 µM; in the experiment on KM12 colon it was 10.5 µM; with SW-620 colon, 4.37 µM. Moreover, the TGI in the experiment on COLO 205 colon turned out to be 3.83 µM.
As for `NC(=O)c1cc(Cl)ccc1NC(=O)/C=C/c1ccccc1`, the GI50 with HCT-15 colon is 2.38 µM; with SK-MEL-5 melanoma, 0.787 µM; in the experiment on DU-145 prostate it was 3.3 µM; in the experiment with UACC-257 melanoma, > 38.8 µM; in the experiment with KM12 colon, 2.19 µM; in the experiment on SW-620 colon it was 2.36 µM. In addition, the GI50 is 2.77 µM in the experiment with OVCAR-4 ovarian, 2.16 µM in the experiment on COLO 205 colon and 4.33 µM in the experiment on LOX IMVI melanoma. The TGI was > 100 µM with HCT-15 colon; > 24.4 µM with DU-145 prostate; > 100 µM in the experiment on UACC-257 melanoma; > 100 µM in the experiment on KM12 colon; > 100 µM in the experiment with SW-620 colon; > 100 µM with OVCAR-4 ovarian. Also, the TGI in the experiment with COLO 205 colon was > 24.1 µM; in the experiment on LOX IMVI melanoma it was > 100 µM.
Regarding `C/C(=N\Nc1ccc(Cl)cn1)c1ccc2ccccc2n1`, the GI50 with HCT-15 colon is 0.64 µM; in the experiment on DU-145 prostate, 4.03 µM; in the experiment on UACC-257 melanoma, 5.33 µM; in the experiment with CAKI-1 renal it was 2.81 µM; in the experiment on KM12 colon, 3.15 µM; in the experiment on SW-620 colon it was 3.83 µM. The GI50 is 1.52 µM in the experiment on OVCAR-4 ovarian, 2.98 µM in the experiment on COLO 205 colon and 2.02 µM in the experiment with LOX IMVI melanoma. In addition, the TGI with HCT-15 colon was > 100 µM; with DU-145 prostate it was > 100 µM; in the experiment on UACC-257 melanoma, 97.3 µM; in the experiment on CAKI-1 renal it was 87.1 µM; in the experiment with KM12 colon, > 100 µM; with SW-620 colon, > 100 µM. Further, the TGI with OVCAR-4 ovarian, in the experiment with COLO 205 colon and in the experiment with LOX IMVI melanoma was > 100 µM in each case.
With `CCOC(=O)C1SC(=Nc2ccc(C)c(C)c2)N=C1C` (configuration not stated), the TGI with HCT-15 colon, with SK-MEL-5 melanoma, in the experiment on UACC-257 melanoma, in the experiment on CAKI-1 renal, with KM12 colon and in the experiment on SW-620 colon was > 100 µM each time. Moreover, the TGI in the experiment on OVCAR-4 ovarian, in the experiment with COLO 205 colon and in the experiment on LOX IMVI melanoma was > 100 µM in each case.
Consider `CN(C)CCC1(C2=CCCC2)CC/C(=C\c2ccc(Cl)cc2)C1=O` (configuration not stated), for which the TGI in the experiment with HCT-15 colon amounted to 16.6 µM; in the experiment on SK-MEL-5 melanoma, 4.07 µM; with UACC-257 melanoma, 8.62 µM; in the experiment with CAKI-1 renal, 19.2 µM; in the experiment with KM12 colon it was 23.6 µM; in the experiment with SW-620 colon, 24.2 µM. The figures for the TGI in the experiment on OVCAR-4 ovarian, with COLO 205 colon and in the experiment with LOX IMVI melanoma were 21.5 µM, 28.3 µM and 23.1 µM, respectively.
